Consider six compounds from PMC7009771 (EFSA Journal, 2018).

One data set relates to bone marrow of CD-1 mice. As to conditions: positive control, 60 mg/kg bw per day; ref WIL Research (2013a); cited from earlier work.
For data set [1] the following is noted: carcinogenic potential; ref EC SCCS, 2012, EFSA ANS Panel, 2017; cited from earlier work.
Data set [2] in a line: Nitrosation rate constant. As to conditions: pH 3.4; estimated from kDMA by correction for the pKa difference.
Data set [3] has as its system bone marrow of Hsd:ICR (CD-1) mice. Particulars: cited from earlier work; for maximum tolerated dose (MTD): range-finder, oral gavage, ref BioReliance, 2014.
For data set [4], the system named is S. Typhimurium strains TA98, TA100, TA1535 and TA1537 and E. coli strain WP2 uvrA. As to conditions: up to 5,000 μg/plate, ref BioReliance (2013a), cited from earlier work; for Bacterial reverse mutation result: plate incorporation, with and without metabolic activation.
Data set [5] has as its system human peripheral blood lymphocytes (HPBL). As to conditions: ref BioReliance (2013b), cited from earlier work; for Chromosome aberration result (structural aberrations): 4 + 16 h in the absence of S9-mix.

The structures appear in SMILES notation. Like-named read-outs stand apart in the source and are kept apart here.

For `O=P1(N(CCCl)CCCl)NCCCO1` (stereo not drawn) [CP, Cyclophosphamide monohydrate, reference compound], in the data set with bone marrow of CD-1 mice, the “frequency of MNPCEs, positive control” value was “statistically significant increase”.
Consider `CN(C)N=O` [DMNA, dimethylnitrosamine], for which the BMDL10 in data set [1] is given as 27 μg/kg bw per day.
In the case of `c1csc(CNc2cc[nH]n2)c1` [M179, N‐(thiophen‐2‐ylmethyl)‐1H‐pyrazol‐3‐amine], the “rate constant of nitrosation (kM179), estimated” value in data set [2] is 0.0017 × 10^−4 M^−2s^−1.
On to `COS(C)(=O)=O` [MMS, methyl methanesulfonate, reference compound], for which the “frequency of MNPCEs, positive control” value in data set [3] (positive control, 40 mg/kg bw per day on days 2 and 3, ref BioReliance (2014)) is “statistically significant increases”.
As for `Cl.c1csc(CNc2cc[nH]n2)c1` [S1140, N‐(Thiophen‐2‐ylmethyl)‐1H‐pyrazol‐3‐amine, hydrochloride salt], the “Bacterial reverse mutation result” value in data set [4] is recorded as “did not show mutagenicity”; in data set [4] (hydrochloride salt (M179)) it was “Negative ^a”. For the same compound, in data set [4] (two studies), the “precipitate / background lawn toxicity” value is given as “Neither precipitate nor background lawn toxicity was observed in the two studies performed”. Moreover, the “Chromosome aberration result (structural aberrations)” value is “Positive ^e” in data set [5] (hydrochloride salt (M179)) and “induced chromosomal aberrations” in data set [5]. The structural chromosomal aberrations entry in data set [5] (4 + 16 h treatment in the presence of S9-mix, 100-1,840 μg/mL) is “No statistically significant or concentration‐related increases in structural chromosomal aberrations”. Besides, the polyploidy entry in data set [5] (any of the treatment conditions) is reported as “No statistically significant or concentration‐related increases in polyploidy”.
For `O=S(=O)(O)O.c1csc(CNc2cc[nH]n2)c1.c1csc(CNc2cc[nH]n2)c1` [S2312, hemisulfate salt of N‐(thiophen‐2‐ylmethyl)‐1H‐pyrazol‐3‐amine], the clinical signs observed entry in data set [3] (mice, 125-1,000 mg/kg bw per day, gavage, ref BioReliance (2014)) is “piloerection (at all dose levels), lethargy (at 500 and 1,000 mg/kg bw per day), prostration, irregular breathing and crusty eyes (at 1,000 mg/kg bw per day in female mice)”. For the same compound, in data set [3] (mice, any dose level up to 1,000 mg/kg bw per day, ref BioReliance (2014)), the mortality result was “No mortality”. For the same compound, the results for the “maximum tolerated dose (MTD)” value in data set [3] (female mice) and in data set [3] (male mice) were 1,000 mg/kg bw per day and 500 mg/kg bw per day, respectively.
